The record followed here is patent publication US9303016B2, “Derivatives of aza adamantane and uses thereof” (CONNEXIOS LIFE SCIENCES PVT. LTD., priority 2011, dated 2016).

The assay addresses T1, human full length HSD11β1 (Homo sapiens, UniProt P28845).
T1 construct: transient expression of human full length HSD11β1 expression vector; host or cells: CHO cells, transient transfection
In words: In Vitro HSD11β1 Inhibition Assay. It is filed as cell-based. To be noted: CHO cells transiently expressing human HSD11β1; 200 nM cortisone+500 uM NADPH overnight; cortisone to cortisol by LC/MS-MS; read-out: 11βHSD1 (IC50). As for the experimental part:
In Vitro HSD11β1 Inhibition Assay:
CHO cells were maintained in Dulbecco's modified Eagle's medium/nutrient mixture F-12 containing 5% fetal bovine serum (v/v) and 2 mM glutamine. Cells were cultured at 37° C. with 5% CO2. For transient expression of human full length HSD11β1 expression vector (OriGene Technologies), cells were seeded at a density of 2×10^5 cells/well in a 6-well plate. Transfection was done using Turbofectin8 reagent (OriGene Technologies), according to the protocol provided with the reagent. After 24 hours post-transfection, cells were trypsinized and pooled together before they were re-seeding to 96-well plate at a density of 40000 cells/well. 24 hours after re-seeding, cells were incubated with 200 nM cortisone+500 uM NADPH (or along with small molecule inhibitors) overnight. The enzymatic activity or inhibition of enzyme activity was measured by estimating the conversion of cortisone to cortisol by LC/MS-MS method. The IC50 in nM was calculated from a 8 point log scale of concentration versus inhibition.

SMILES strings stand for the structures.

T1 sequence (P28845 whole entry): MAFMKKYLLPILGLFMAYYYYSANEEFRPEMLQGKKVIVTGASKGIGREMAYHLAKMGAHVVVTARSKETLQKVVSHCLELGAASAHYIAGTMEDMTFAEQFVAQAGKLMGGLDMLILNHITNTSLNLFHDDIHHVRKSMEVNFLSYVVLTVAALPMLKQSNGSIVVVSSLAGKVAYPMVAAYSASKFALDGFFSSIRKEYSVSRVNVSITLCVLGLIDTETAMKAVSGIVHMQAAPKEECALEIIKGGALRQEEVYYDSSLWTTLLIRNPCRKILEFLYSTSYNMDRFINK

As for `CC(C)Oc1cccc2[nH]cc(C(C)CC(=O)N3C4CC5CC3CC(F)(C5)C4)c12` (single isomer, unassigned) [Compound 185, 1-(5-fluoro-2-azatricyclo[3.3.1.1^3,7]dec-2-yl)-3-[4-(propan-2-yloxy)-1H-indol-3-yl]butan-1-one], the IC50 was more than 250 nM.

For the molecule `CC(CC(=O)N1C2CC3CC1CC(O)(C3)C2)c1c[nH]c2cccc(-c3cccs3)c12` (single isomer, unassigned) [Compound 189, 1-(5-hydroxy-2-azatricyclo[3.3.1.1^3,7]dec-2-yl)-3-[4-(thiophen-2-yl)-1H-indol-3-yl]butan-1-one], the half-maximal inhibitory concentration (IC50) is more than 250 nM. Consider `CC(CC(=O)N1C2CC3CC1CC(O)(C3)C2)c1nc2ccc(Cl)cc2s1` (single isomer, unassigned) [Compound 194, 3-(6-chloro-1,3-benzothiazol-2-yl)-1-(5-hydroxy-2-azatricyclo[3.3.1.1^3,7]dec-2-yl)butan-1-one], for which the 50% inhibitory concentration (IC50) was less than 100 nM. As for `CC(CC(=O)N1C2CC3CC1CC(O)(C3)C2)c1nc2ccc(Cl)cc2s1` (single isomer, unassigned) [Compound 195, 3-(6-chloro-1,3-benzothiazol-2-yl)-1-(5-hydroxy-2-azatricyclo[3.3.1.1^3,7]dec-2-yl)butan-1-one], the figure is more than 250 nM. For the molecule `CC(CC(=O)N1C2CC3CC1CC(O)(C3)C2)c1c[nH]c2ncc(Cl)c(C3CC3)c12` (single isomer, unassigned) [Compound 200, 3-(5-chloro-4-cyclopropyl-1H-pyrrolo[2,3-b]pyridin-3-yl)-1-(5-hydroxy-2-azatricyclo[3.3.1.1^3,7]dec-2-yl)butan-1-one], the IC50 is more than 250 nM. The result for `CC(CC(=O)N1C2CC3CC1CC(O)(C3)C2)c1c[nH]c2ccccc12` (single isomer, unassigned) [Example 21, 1-(5-hydroxy-2-azatricyclo[3.3.1.1^3,7]dec-2-yl)-3-(1H-indol-3-yl)butan-1-one] reads more than 250 nM; that for `CC(CC(=O)N1C2CC3CC1CC(O)(C3)C2)c1c[nH]c2ccccc12` (single isomer, unassigned) [Example 22, 1-(5-hydroxy-2-azatricyclo[3.3.1.1^3,7]dec-2-yl)-3-(1H-indol-3-yl)butan-1-one], more than 250 nM; that for `CC(CC(=O)N1C2CC3CC1CC(O)(C3)C2)c1c[nH]c2cccc(F)c12` (single isomer, unassigned) [Example 27, 3-(4-fluoro-1H-indol-3-yl)-1-(5-hydroxy-2-azatricyclo[3.3.1.1^3,7]dec-2-yl)butan-1-one], more than 250 nM. The result for `CC(CC(=O)N1C2CC3CC1CC(O)(C3)C2)c1c[nH]c2cccc(F)c12` (single isomer, unassigned) [Example 28, 3-(4-fluoro-1H-indol-3-yl)-1-(5-hydroxy-2-azatricyclo[3.3.1.1^3,7]dec-2-yl)butan-1-one] reads 200 to 250 nM; that for `COC12CC3CC(C1)N(C(=O)CC(C)c1c[nH]c4cccc(F)c14)C(C3)C2` (single isomer, unassigned) [Example 30, 3-(4-fluoro-1H-indol-3-yl)-1-(5-methoxy-2-azatricyclo[3.3.1.1^3,7]dec-2-yl)butan-1-one], 150 to 200 nM. In the case of `COC12CC3CC(C1)N(C(=O)CC(C)c1c[nH]c4cccc(F)c14)C(C3)C2` (single isomer, unassigned) [Example 31, 3-(4-fluoro-1H-indol-3-yl)-1-(5-methoxy-2-azatricyclo[3.3.1.1^3,7]dec-2-yl)butan-1-one], the concentration for half-maximal inhibition (IC50) was less than 100 nM.

In the case of `CC(CC(=O)N1C2CC3CC1CC(O)(C3)C2)c1c[nH]c2cccc(Cl)c12` (single isomer, unassigned) [Example 36, 3-(4-chloro-1H-indol-3-yl)-1-(5-hydroxy-2-azatricyclo[3.3.1.1^3,7]dec-2-yl)butan-1-one], the half-inhibitory concentration (IC50) lay within 200 to 250 nM. With `CC(CC(=O)N1C2CC3CC1CC(O)(C3)C2)c1c[nH]c2cccc(Cl)c12` (single isomer, unassigned) [Example 37, 3-(4-chloro-1H-indol-3-yl)-1-(5-hydroxy-2-azatricyclo[3.3.1.1^3,7]dec-2-yl)butan-1-one], the IC50 was less than 100 nM. As for `Cc1cccc2[nH]cc(C(C)CC(=O)N3C4CC5CC3CC(O)(C5)C4)c12` (single isomer, unassigned) [Example 49, 1-(5-hydroxy-2-azatricyclo[3.3.1.1^3,7]dec-2-yl)-3-(4-methyl-1H-indol-3-yl)butan-1-one], the figure is less than 100 nM; as for `CC(CC(=O)N1C2CC3CC1CC(C(=O)O)(C3)C2)c1c[nH]c2cccc(C3CC3)c12` (single isomer, unassigned) [Example 53, 2-[3-(4-cyclopropyl-1H-indol-3-yl)butanoyl]-2-azatricyclo[3.3.1.1^3,7]decane-5-carboxylic acid], more than 250 nM.

As for `O=C(CC(c1ccc(F)cc1)c1c[nH]c2ccccc12)N1C2CC3CC1CC(O)(C3)C2` (centres unmarked) [Compound 73, 3-(4-fluorophenyl)-1-(5-hydroxy-2-azatricyclo[3.3.1.1^3,7]dec-2-yl)-3-(1H-indol-3-yl)propan-1-one], the IC50 was less than 100 nM.

`Cc1cccc2[nH]cc(C(CC(=O)N3C4CC5CC3CC(O)(C5)C4)C(C)C)c12` (centres unmarked) [Compound 74, 1-(5-hydroxy-2-azatricyclo[3.3.1.1^7]dec-2-yl)-4-methyl-3-(4-methyl-1H-indol-3-yl)pentan-1-one]: the IC50 is more than 250 nM. `CC(CC(=O)N1C2CC3CC1CC(O)(C3)C2)c1c[nH]c2ccc(F)cc12` (centres unmarked) [Compound 75, 3-(5-fluoro-1H-indol-3-yl)-1-(5-hydroxy-2-azatricyclo[3.3.1.1^3,7]dec-2-yl)butan-1-one]: the IC50 was in the range of 200 to 250 nM. The result for `CC(CC(=O)N1C2CC3CC1CC(c1nnn[nH]1)(C3)C2)c1c[nH]c2cccc(Cl)c12` (centres unmarked) [Compound 76, 3-(4-chloro-1H-indol-3-yl)-1-[5-(1H-tetrazol-5-yl)-2-azatricyclo[3.3.1.1^3,7]dec-2-yl]butan-1-one] reads more than 250 nM; that for `Cc1cccc2[nH]cc(C(C)CC(=O)N3C4CC5CC3CC(c3nnn[nH]3)(C5)C4)c12` (centres unmarked) [Compound 77, 3-(4-methyl-1H-indol-3-yl)-1-[5-(1H-tetrazol-5-yl)-2-azatricyclo[3.3.1.1^3,7]dec-2-yl]butan-1-one], more than 250 nM; that for `Cc1cccc2c(C(C)CC(=O)N3C4CC5CC3CC(O)(C5)C4)c[nH]c12` (centres unmarked) [Compound 78, 1-(5-hydroxy-2-azatricyclo[3.3.1.1^3,7]dec-2-yl)-3-(7-methyl-1H-indol-3-yl)butan-1-one], more than 250 nM. The result for `CC(CC(=O)N1C2CC3CC1CC(O)(C3)C2)c1c[nH]c2cc(F)ccc12` (centres unmarked) [Compound 79, 3-(6-fluoro-1H-indol-3-yl)-1-(5-hydroxy-2-azatricyclo[3.3.1.1^3,7]dec-2-yl)butan-1-one] reads 100 to 150 nM. The result for `CC(CC(=O)N1C2CC3CC1CC(O)(C3)C2)c1cn(CCO)c2cccc(C3CC3)c12` (centres unmarked) [Compound 80, 3-[4-cyclopropyl-1-(2-hydroxyethyl)-1H-indol-3-yl]-1-(5-hydroxy-2-azatricyclo[3.3.1.1^3,7]dec-2-yl)butan-1-one] reads more than 250 nM; that for `O=C(CC(c1ccccc1)c1c[nH]c2cccc(F)c12)N1C2CC3CC1CC(O)(C3)C2` (centres unmarked) [Compound 83, 3-(4-fluoro-1H-indol-3-yl)-1-(5-hydroxy-2-azatricyclo[3.3.1.1^3,7]dec-2-yl)-3-phenylpropan-1-one], less than 100 nM. Regarding `CC(CC(=O)N1C2CC3CC1CC(O)(C3)C2)c1nc2ccccc2s1` (centres unmarked) [Compound 84, 3-(1,3-benzothiazol-2-yl)-1-(5-hydroxy-2-azatricyclo[3.3.1.1^3,7]dec-2-yl)butan-1-one], the IC50 lay in the range of 200 to 250 nM. On to `CC(CC(=O)N1C2CC3CC(C2)CC1C3)c1c[nH]c2ncccc12` (centres unmarked) [Compound 85], for which the IC50 is less than 100 nM.

As to `CC(CC(=O)N1C2CC3CC1CC(O)(C3)C2)c1c[nH]c2ncccc12` (centres unmarked) [Compound 86, 1-(5-hydroxy-2-azatricyclo[3.3.1.1]dec-2-yl)-3-(1H-pyrrolo[2,3-b]pyridin-3-yl)butan-1-one], the IC50 was more than 250 nM.

Turning to `CC(CC(=O)N1C2CC3CC1CC(O)(C3)C2)c1c[nH]c2nccc(Cl)c12` (centres unmarked) [Compound 87, 3-(4-chloro-1H-pyrrolo[2,3-b]pyridin-3-yl)-1-(5-hydroxy-2-azatricyclo[3.3.1.1^3,7]dec-2-yl)butan-1-one], the IC50 lay in the range of 150 to 200 nM. As for `Cc1ccnc2[nH]cc(C(C)CC(=O)N3C4CC5CC3CC(O)(C5)C4)c12` (centres unmarked) [Compound 88, 1-(5-hydroxy-2-azatricyclo[3.3.1.1^3,7]dec-2-yl)-3-(4-methyl-1H-pyrrolo[2,3-b]pyridin-3-yl)butan-1-one], the figure is more than 250 nM; as for `CC(C)C(CC(=O)N1C2CC3CC1CC(O)(C3)C2)c1c[nH]c2ncccc12` (centres unmarked) [Compound 90, 1-(5-hydroxy-2-azatricyclo[3.3.1.1^3,7]dec-2-yl)-4-methyl-3-(1H-pyrrolo[2,3-b]pyridin-3-yl)pentan-1-one], more than 250 nM.

On to `CC(CC(=O)N1C2CC3CC1CC(C(=O)O)(C3)C2)c1c[nH]c2ncccc12` (centres unmarked) [Compound 91, 2-[3-(1H-pyrrolo[2,3-b]pyridin-3-yl)butanoyl]-2-azatricyclo[3.3.1.1^3,7]decane-5-carboxylic acid], for which the IC50 was more than 250 nM. The result for `CC(C)C(CC(=O)N1C2CC3CC1CC(C#N)(C3)C2)c1c[nH]c2ncccc12` (centres unmarked) [Compound 92, 2-[4-methyl-3-(1H-pyrrolo[2,3-b]pyridin-3-yl)pentanoyl]-2-azatricyclo[3.3.1.1^3,7]decane-5-carbonitrile] reads more than 250 nM.
